# Data: patent publication US8847003B2, “Role of proteoglycans in drug dependence” (priority 2002, dated 2014)
# Ends that are not written are not given here.
# What was measured:
# [1] = test system: mouse hypothalamic protein extracts; assay: Cleavage of internally-quenched fluorogenic peptides by hypothalamic protein extracts; assay type: biochemical; conditions: 37° C., 50 mM Tris-HCl buffer, pH 7.0; for proteolytic cleavage of the fluorogenic peptide by hypothalamic extracts: peptide as substrate
# Excerpt: According to one of the embodiments of the invention, syndecan-3 sheddases are identified by an assay for syndecan-3 cleavage, which requires knowledge of the cleavage site. The cleavage site for syndecan-3 cleavage is not presently completely identified. However, according to embodiments of the invention, we designed a battery of overlapping internally-quenched fluorogenic peptides spanning the juxta-membrane region of the mouse syndecan-3 (Amino Acid residues 355-388) labeled at their ends with Abz (ortho-aminobenzoyl) and EDDnp (ethylenediaminedinitrophenyl) for fluorescent detection of proteolytic cleavage (FIG. 7A). The peptides were individually incubated with mouse hypothalamic protein extracts at 37° C. in 50 mM Tris-HCl buffer, pH 7.0. Fluorescence was continuously measured at λex=320 nm and λem=420 nm. […] Proteolytic activity is expressed as reaction rate (activity/μl/min). […] Thus, this peptide or a peptide overlapping this peptide can be used in an assay to identify the sheddase of syndecan-3 and/or drugs that prevent or facilitate shedding (inhibitors, activators, mimics antimimics).
# While the invention has been described in conjunction with the detailed description, the foregoing description is intended to illustrate and not limit the scope of the invention, which is defined by the scope of the appended claims. Other aspects, advantages, and modifications are within the scope of the following claims.
# syndecan-mutant mice = assay: Cue-induced reinstatement of cocaine-seeking behavior; assay type: in vivo; conditions: for reinstatement of cocaine seeking behavior in mice (figure legend): FIG. 6 legend
# Excerpt: . Separate groups of mice of the 3 syndecan mutant genotypes (syndecan-3 knockout, whole syndecan-1 transgenic, and syndecan-1 ectodomain transgenic mice) were trained to self-administer cocaine by intravenous injection as described above. Mice were subjected to 7 sessions of 1-hour access to self-administration followed by 8 sessions of 6-hour access as described above.
# Mice were allowed one 1-hour extinction session/day for a minimum of 14 days, until an extinction criterion was reached. The extinction criterion was designated as a group mean of less than 10 responses/1 hour for two consecutive sessions on the active lever.
# The conditions during testing were identical to those during the extinction phase, with the exception that lever presses led to presentations of the cocaine cue-light for 5 seconds. The 1-hour test session for cue-induced reinstatement were conducted on the day following the last extinction session. A one way ANOVA with one between factor (genotype, three) were used to measure any differential effects of the cocaine-related cue induced reinstatement.
# In still another example, the following experiment was performed showing that a wide spectrum of MMP inhibitors block cue-induced reinstatement of cocaine seeking behavior. Lever-pressing behavior in cocaine self-administering syndecan-mutant mice was extinguished in the absence of the 20 sec cue light (CS) that was paired with cocaine infusions during the training phase as shown in Example 4. […] In FIG. 6B, After a few days, animals were again presented with the cue light non-contingently and on the third day of reinstatement they were administered IP the systemically active broad-spectrum MMP inhibitor prinomastat (20 mg/Kg) 30-60 min before the reinstatement sessions starting on the third session.
# Rotarod performance = assay type: in vivo, mice; conditions: prinomastat at the dose used (20 mg/Kg IP); data not shown
# syndecan-3 = assay: Western blot of uncleaved syndecan-3 after ICV GM-6001 in mice; assay type: in vivo, C57BL/6J mice; conditions: for uncleaved syndecan-3 / shedding of syndecan-3 (western blot, syndecan-3 C-terminal domain antibody): ICV at various doses, sacrificed 3 hours after administration
# Excerpt: FIG. 5B. Quantification of western blot shown in (A).
compound,measurement,setting,value
c1cnc2c(c1)ccc1cccnc12 [ortho-phenanthroline],inhibition of hydrolysis of peptide 1 (Seq Id No. 3) by hypothalamic extract,"[1]; fluorescence λex=320 nm, λem=420 nm",completely inhibited
"CC1(C)SCCN(S(=O)(=O)c2ccc(Oc3ccncc3)cc2)[C@H]1C(=O)NO [prinomastat, Prinomastat]",reinstatement of cocaine seeking behavior in mice (figure legend),syndecan-mutant mice,block reinstatement of cocaine seeking behavior
same,responding during reinstatement,"syndecan-mutant mice; prinomastat 20 mg/Kg IP 30-60 min before sessions, syndecan-1 ectodomain Tg mice, p<0.01 from last day before treatment",significantly declined
same,performance on the rotarod,Rotarod performance,did not affect
Ilomastat [GM6001],reinstatement of cocaine seeking behavior in mice (figure legend),syndecan-mutant mice,block reinstatement of cocaine seeking behavior
same,"responding during reinstatement, last day before treatment vs last day of treatment","syndecan-mutant mice; GM6001 0.4 μg ICV 30-60 min before sessions, syndecan-3 KO mice",not significantly different
same,cocaine seeking behavior (responding) during reinstatement,"syndecan-mutant mice; GM6001 0.4 μg ICV 30-60 min before sessions, whole syndecan-1 Tg mice, p<0.01 from last day before treatment",greatly reduced
same,"uncleaved syndecan-3 / shedding of syndecan-3 (western blot, syndecan-3 C-terminal domain antibody)",syndecan-3,reduces shedding of syndecan-3
same,"uncleaved syndecan-3 / shedding of syndecan-3 (western blot, syndecan-3 C-terminal domain antibody)",syndecan-3; listed as GM-6001,accumulation of uncleaved syndecan-3
same,increase of uncleaved syndecan-3 (quantification of western blot),"syndecan-3; ICV, highest doses tested (0.4 μg, 2.0 μg), p<0.01 from vehicle-injected control",about 3 fold
Mca-PLQAV-Dpa-RSSSR-NH2 [Compound E003],proteolytic cleavage of the fluorogenic peptide by hypothalamic extracts,[1],observed activity
"RPGLGLHDNA (not fully specified; also: fluorophore/quencher pair (positions not given here); listed as Mus musculus) [Peptide 1, internally-quenched fluorogenic peptide from mouse syndecan-3 juxta-membrane region]",proteolytic cleavage of the fluorogenic peptide by hypothalamic extracts,[1],efficiently hydrolized
